Laboratory results taken from ChEMBL document CHEMBL1129579, “Carbohydrates in an acidic multivalent assembly: nanomolar P-selectin inhibitors” (J Med Chem, 1996).

Biological target: T1, P-selectin (Homo sapiens, UniProt P16109)
T1 sequence (P16109 whole entry): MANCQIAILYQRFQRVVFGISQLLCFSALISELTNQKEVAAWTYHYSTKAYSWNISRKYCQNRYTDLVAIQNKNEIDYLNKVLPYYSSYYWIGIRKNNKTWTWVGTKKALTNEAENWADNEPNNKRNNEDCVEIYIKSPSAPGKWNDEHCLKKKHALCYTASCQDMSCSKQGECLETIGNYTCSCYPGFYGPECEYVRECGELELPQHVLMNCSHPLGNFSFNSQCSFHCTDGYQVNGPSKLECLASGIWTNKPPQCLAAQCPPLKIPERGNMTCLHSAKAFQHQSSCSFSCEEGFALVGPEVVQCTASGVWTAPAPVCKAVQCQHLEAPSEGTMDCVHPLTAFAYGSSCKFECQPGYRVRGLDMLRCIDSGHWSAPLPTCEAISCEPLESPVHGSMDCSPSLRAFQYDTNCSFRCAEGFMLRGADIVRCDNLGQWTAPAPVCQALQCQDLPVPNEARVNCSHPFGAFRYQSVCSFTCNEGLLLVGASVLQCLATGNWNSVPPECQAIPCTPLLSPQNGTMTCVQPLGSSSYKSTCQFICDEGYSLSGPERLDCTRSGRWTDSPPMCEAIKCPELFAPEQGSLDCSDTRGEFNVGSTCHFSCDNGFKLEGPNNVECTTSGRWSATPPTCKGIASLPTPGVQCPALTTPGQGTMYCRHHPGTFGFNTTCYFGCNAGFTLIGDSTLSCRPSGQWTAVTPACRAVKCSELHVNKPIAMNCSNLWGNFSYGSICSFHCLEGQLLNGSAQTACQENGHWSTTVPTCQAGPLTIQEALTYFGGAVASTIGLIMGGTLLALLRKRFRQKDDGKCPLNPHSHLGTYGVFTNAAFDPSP
Assay: Inhibitory activity against Selectin P IgG chimera binding to HL-60 cells, by binding to Selectin P
Format: cell-based

For `CCCCCCCCCCCCC#CC#CCCCCCCCCC(=O)NCCSCCCN(C(C)=O)[C@@H]1O[C@@H](CO)[C@@H](O[C@@H]2O[C@@H](CO)[C@H](O)[C@H](OCC(=O)O)[C@@H]2O)[C@H](O[C@@H]2O[C@@H](C)[C@@H](O)[C@H](O)[C@@H]2O)[C@@H]1O`, the IC50 was 2 nM.

Compound `CCCCCCCCCCCCC#CC#CCCCCCCCCC(=O)NCCO` has an IC50 of 500 nM.
